Results on 9 compounds are retold here after publication PMC12197363 (Viruses, 2025).

Test [1] has as its target T1, Norovirus 3CL^pro (Norovirus GII.4, UniProt P54634).
T1 sequence (P54634 1009-1189): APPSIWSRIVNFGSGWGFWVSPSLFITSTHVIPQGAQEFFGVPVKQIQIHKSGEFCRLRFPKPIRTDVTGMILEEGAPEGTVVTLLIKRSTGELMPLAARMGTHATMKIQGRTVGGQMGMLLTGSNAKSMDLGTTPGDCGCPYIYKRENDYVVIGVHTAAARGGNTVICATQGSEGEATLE
Briefly: Cell-based FlipGFP assay of 3CLpro inhibition. On the set-up: species or system Norovirus genotype GII.4.

The subject of test [2] is Norovirus 3CL^pro. Briefly: Western blot of FlipGFP cleavage. Format: cell-based. Conditions: at higher inhibitor concentrations, compared with C139A control. For orientation: Immunoblotting shows a protein as a band on a membrane.
For a further test, the system named is VEGFR2. To be noted: quoted in Description column of Table S1; no reference given; cited from earlier work.
Another test relates to c-Met. To be noted: quoted in Description column of Table S1; no reference given; cited from earlier work.

Where two headings read alike, the source gives them in different places.

The term IC50 denotes the midpoint of a concentration-inhibition curve. As for `O=c1[nH]c2ccccc2n1C1CCN(Cc2ccc(-c3[nH]c4cc5ncnc5cc4nc3-c3ccccc3)cc2)CC1` [Akt inhibitor VIII], half-maximal inhibition against Norovirus 3CL^pro [1] (IC50) required 590 ± 120 nM.
`N#Cc1ccc(O[C@H]2CC[C@H](NC(=O)c3ccc(N4CCC(CN5CCN(c6cc7c(cc6F)C(=O)N(C6CCC(=O)NC6=O)C7=O)CC5)CC4)nn3)CC2)cc1Cl` (some centres unmarked) [Bavdegalutamide] showed a half-maximal inhibitory concentration (IC50) at Norovirus 3CL^pro [1] of 970 ± 240 nM.
As to `O=C(Nc1cccc(-c2nc(-c3ccc(NC(=O)c4cccnc4)cc3Cl)no2)c1)Nc1ccc(NC(=O)C2CC2)c(C(F)(F)F)c1` [EGFR-IN-8], in the test with Norovirus 3CL^pro [2], the “Proteolytic cleavage of FlipGFP (Western blot)” value was “proteolytic cleavage was markedly reduced”. The IC50 on Norovirus 3CL^pro [1] was determined as 290 ± 90 nM.
With `CC(C)C[C@H](NC(=O)OCc1ccccc1)C(=O)N[C@@H](CC1CCNC1=O)C(O)S(=O)(=O)O` (some centres unmarked) [GC376], the IC50 on Norovirus 3CL^pro [1] (HEK293T cells co-transfected with 3CLpro-FlipGFP and 3CLpro, compound added 6 h, fluorescence read 24 h post-transfection, triplicate, read-out: IC50) came out at 2280 ± 170 nM.
As for `CCc1cc(Nc2nccc(-c3c(-c4ccc(OC)c(C(=O)Nc5c(F)cccc5F)c4)nc4ccccn34)n2)c(OC)cc1N1CCC(N2CCN(S(C)(=O)=O)CC2)CC1` [GSK1904529A], inhibition against Norovirus 3CL^pro [1] was half-maximal at 3940 ± 230 nM (IC50).
On to `CN(C)C1CCN(C(=O)c2ccc(NC(=O)Nc3ccc(-c4nc(N5CCOCC5)nc(N5CCOCC5)n4)cc3)cc2)CC1` [Gedatolisib], for which, in the test with Norovirus 3CL^pro [2], the “Proteolytic cleavage of FlipGFP (Western blot)” value was “proteolytic cleavage was markedly reduced”.
Regarding `CN1CCN(C2CCN(C(=O)Nc3cc(Oc4ccc(NC(=O)C5(C(=O)Nc6ccc(F)cc6)CC5)c(F)c4)ccn3)CC2)CC1` [Golvatinib], the IC50 in the test with VEGFR2 was 16 nM; with c-Met it was 14 nM.
The compound `O=C(c1ccc(Nc2nccc(-c3cc4ccccc4s3)n2)cc1)N1CCC(N2CCCC2)CC1` [IKK 16] showed a half-inhibitory concentration (IC50) at Norovirus 3CL^pro [1] of 5090 ± 160 nM.
The compound `CC(=O)N1CCC(c2cc(-c3ccc(NC(=O)c4cccn(-c5ccc(F)cc5)c4=O)cc3F)c3c(N)ncnn23)CC1` [TAM-IN-2] displayed an IC50 on Norovirus 3CL^pro [1] of 1220 ± 440 nM.
